The source of these data is ChEMBL document CHEMBL1133112, “Structure-function relationships in aminoquinolines: effect of amino and chloro groups on quinoline-hematin complex formation, inhibition of beta-hematin formation, and antiplasmodial activity” (J Med Chem, 2000).

Each structure is given as a SMILES string. pIC50: −log10 of the molar value. Active and inactive are the calls of the source. The rule behind the calls is not given here.

The test system of one experiment is Plasmodium falciparum. The experiment in a line: In vitro antiplasmodial activity against Plasmodium falciparum D10. The experiment is classed as functional, organism-based.
Experiment [1] concerns Ferriprotoporphyrin IX.
Description: Association constant with ferriprotoporphyrin IX.
The target of experiment [2] is T1, Histidine-rich protein PFHRP-II (Plasmodium falciparum) (UniProt P05227).
T1 sequence (whole entry): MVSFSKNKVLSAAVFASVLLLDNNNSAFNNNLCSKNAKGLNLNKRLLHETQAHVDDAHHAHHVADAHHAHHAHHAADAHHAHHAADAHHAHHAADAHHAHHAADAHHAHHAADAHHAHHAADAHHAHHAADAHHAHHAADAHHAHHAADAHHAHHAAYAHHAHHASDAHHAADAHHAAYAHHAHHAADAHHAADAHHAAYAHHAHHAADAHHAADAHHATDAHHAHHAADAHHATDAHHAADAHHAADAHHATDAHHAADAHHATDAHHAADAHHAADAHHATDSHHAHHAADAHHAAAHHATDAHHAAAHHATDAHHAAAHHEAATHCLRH

Experiment [3] relates to Ferriprotoporphyrin IX. The experiment in a line: LogK (Association constant) with ferriprotoporphyrin IX.

A word on the pIC50: it is the negative decadic logarithm of the IC50, by convention in mol/L. Low readings indicate a high IC50, high ones a low IC50. On to `CC(=O)NCCNc1ccnc2ccccc12`, for which, in the experiment with Plasmodium falciparum, the pIC50 is < 5.00. Moreover, the Log K with Ferriprotoporphyrin IX [1] turned out to be 4.28. In addition, the NI result in experiment [2] is “No inhibition”.
On to `Nc1cccc2ncccc12`, for which, in the experiment with Plasmodium falciparum, the pIC50 is < 5.00. The Log K with Ferriprotoporphyrin IX [1] was < 2.5. Besides, the NI result in experiment [2] is “No inhibition”.
Molecule `CN(C)CCNc1ccnc2cc(Cl)ccc12` showed a negative logarithm of the IC50 (pIC50) in the experiment with Plasmodium falciparum of 7.09. In addition, the Log K with Ferriprotoporphyrin IX [1] amounted to 4.96.
For the molecule `CNc1ccc2ccccc2n1`, in the experiment with Plasmodium falciparum, the pIC50 is < 5.00. Besides, the Log K in the experiment with Ferriprotoporphyrin IX [1] is 4.26. In addition, in experiment [2], the NI entry is “inactive”.
On to `OCCNc1ccnc2ccccc12`, for which the pIC50 with Plasmodium falciparum is < 5.00. In the experiment on Ferriprotoporphyrin IX [1], this molecule came in with a Log K of 4.18. Moreover, in experiment [2], the NI result is “No inhibition”.
The like results for `Nc1ccc2ncccc2c1` were, in that order, < 5.00, < 2.5 and “No inhibition”.
The like results for `Nc1cnc2ccccc2c1` were, in that order, < 5.00, < 2.5 and “inactive”.
`Clc1ccc2c(Cl)ccnc2c1`: the pIC50 with Plasmodium falciparum is < 5.00. In the experiment with Ferriprotoporphyrin IX [1], the Log K was < 2.5. The NI result in experiment [2] is “No inhibition”.
On the same counts, the results for `Nc1cccc2cccnc12` [8-AMINOQUINOLINE] are < 5.00, < 2.5 and “No inhibition”.
Regarding `NCCNc1ccc2ccccc2n1`, in the experiment on Plasmodium falciparum, the pIC50 was < 5.00. Also, in the experiment on Ferriprotoporphyrin IX [1], the Log K amounted to 4.34. Besides, the NI result in experiment [2] is “No inhibition”.
The like results for `c1ccc2ncccc2c1` [QUINOLINE] were, in that order, < 5.00, < 2.5 and “inactive”.
The like results for `NCCNc1ccnc2ccccc12` were, in that order, 5.33, 4.59 and “No inhibition”.
On to `Nc1ccnc2cc(Cl)ccc12`, for which the pIC50 in the experiment on Plasmodium falciparum was 5.42. In the experiment on Ferriprotoporphyrin IX [1], this molecule yielded a Log K of 4.43.
On to `CNc1ccnc2cc(Cl)ccc12`, for which the pIC50 with Plasmodium falciparum was 5.40. This molecule returned a Log K with Ferriprotoporphyrin IX [1] of 4.48.
Molecule `CCN(CC)CCNc1ccnc2ccccc12` showed a pIC50 in the experiment with Plasmodium falciparum of 6.10. In addition, the Log K2 in the experiment on Ferriprotoporphyrin IX [3] amounted to 3.2. The Log K with Ferriprotoporphyrin IX [1] was 4.75. The NI result in experiment [2] was “No inhibition”.
`CCN(CC)CCNc1ccnc2cc(Cl)ccc12`: the pIC50 with Plasmodium falciparum is 7.31. The Log K2 with Ferriprotoporphyrin IX [3] amounted to 4.47. Moreover, the Log K in the experiment on Ferriprotoporphyrin IX [1] is 5.81.
Turning to `CNc1ccnc2ccccc12`, the pIC50 in the experiment on Plasmodium falciparum is < 5.00. Besides, the Log K in the experiment with Ferriprotoporphyrin IX [1] turned out to be 4.38. Also, the NI entry in experiment [2] was “No inhibition”.
`NCCNc1ccnc2cc(Cl)ccc12` gave a pIC50 with Plasmodium falciparum of 7.04. The molecule further returned a Log K with Ferriprotoporphyrin IX [1] of 4.93.
For `Nc1ccnc2ccccc12` [QUINOLIN-4-AMINE], the pIC50 with Plasmodium falciparum was < 5.00. This molecule came in with a Log K in the experiment on Ferriprotoporphyrin IX [1] of 4.49. Besides, in experiment [2], the NI result was “No inhibition”.
`OCCNc1ccnc2cc(Cl)ccc12`: in the experiment on Plasmodium falciparum, the pIC50 is 5.29. The same molecule came in with a Log K with Ferriprotoporphyrin IX [1] of 4.66.
